# Several values for one entry are separate records, joined by “and”; a condition that tells them apart may be missing. Identical values can stand only once.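 The compound was tested at five concentrations on cells cultured in 96-well plates, with a 48-hour exposure period. GI50 is the concentration that inhibits growth by half. TGI: total growth inhibition.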
# Legend:
# Assay in all cases: growth of human tumour cells (NCI), 48 h
# 786-0 renal = tested on: 786-0 renal
# ACHN renal = tested on: ACHN renal
# HCT-15 colon = tested on: HCT-15 colon
# IGROV1 ovarian = tested on: IGROV1 ovarian
# K-562 leukemia = tested on: K-562 leukemia
# LOX IMVI melanoma = tested on: LOX IMVI melanoma
# NCI-H460 lung = tested on: NCI-H460 lung
# OVCAR-8 ovarian = tested on: OVCAR-8 ovarian
# SK-MEL-2 melanoma = tested on: SK-MEL-2 melanoma
SMILES,GI50 (786-0 renal) [µM],TGI (786-0 renal) [µM],GI50 (ACHN renal) [µM],TGI (ACHN renal) [µM],GI50 (HCT-15 colon) [µM],TGI (HCT-15 colon) [µM],GI50 (IGROV1 ovarian) [µM],TGI (IGROV1 ovarian) [µM],GI50 (K-562 leukemia) [µM],TGI (K-562 leukemia) [µM],GI50 (LOX IMVI melanoma) [µM],TGI (LOX IMVI melanoma) [µM],GI50 (NCI-H460 lung) [µM],TGI (NCI-H460 lung) [µM],GI50 (OVCAR-8 ovarian) [µM],TGI (OVCAR-8 ovarian) [µM],GI50 (SK-MEL-2 melanoma),TGI (SK-MEL-2 melanoma) [µM]
CC(=O)Oc1ccccc1C(=O)NCCC[Se]C#N,2.1,4.38,2.29,4.3,2.08,5.06,2.24,11.2,3.46,21.1,1.51,5.26,1.69,4.52,1.95,4.1,2.55 µM,5.64
Cc1cc(Cl)ccc1N1C(=O)C(=O)C(c2nc3ccccc3o2)C(=O)C1=O,–,> 100,–,> 100,–,> 100,–,> 100,–,–,–,–,–,> 100,–,> 100,–,> 100
Cc1cccc(Cl)c1NC(=O)c1cccc([N+](=O)[O-])c1O,–,> 100,–,> 100,–,> 100,–,> 100,–,> 100,–,82.9,–,> 100,–,> 100,–,–
CCCC(=O)O[C@]1(C)CC[C@@H]2[C@H]3[C@@H]1[C@@H]1C/C(C)=C\CC[C@](C)(OC(=O)[C@@H]2C)[C@H]3O1,72.6,> 100,36.2,> 100,44.4,> 100,24.3,> 100,–,–,24.6,59.9,22.5,69.8,47.6,> 100,49.5 µM,> 100
C[CH2][Ge]([CH2]C)([CH2]C)[O]C(=O)C([O][Ge]([CH2]C)([CH2]C)[CH2]C)c1ccccc1 (stereo unspecified),22.4,74.3,15,51.3,14,30,29.1,> 100,14.3,46.1,12,24.5,16.3,> 100,18.2,97.9,–,–
CC(=O)OCC1OC(n2c(=S)n(-c3ccccc3)c(=O)c3cc(Br)ccc32)C(OC(C)=O)C(OC(C)=O)C1OC(C)=O (stereo unspecified),–,> 100,–,> 100,–,> 100,–,> 100,–,> 100,–,> 100,–,> 100,–,> 100,47 µM and > 100 µM,> 100
O=C([CH-]C(=O)c1ccccc1)c1ccccc1.[CH3-].[CH3-].[CH3-].[Sn+4],10.2,33.1,21,> 100,5.51,27.3,33.1,> 100,4.92,23.6,7.95,25.9,6.89,> 100,8.25,53.8,7.68 µM,56.9
Cc1cccc2cc3cccc(C(=O)NCCN(C)C)c3nc12,–,11.5,–,–,–,1.5,–,> 38.8,–,11.3,–,0.568,–,0.312,–,5.58,–,1.85
NC1=NCC(c2ccccn2)C1c1ccc(F)cc1 (stereo unspecified),–,> 100,–,> 100,–,–,–,> 100,–,> 100,–,> 100,–,> 100,–,> 100,–,> 100
NCCn1cnc2nc(NC(=O)c3ccccc3)[nH]c(=O)c21,–,> 100,–,> 100,–,> 100,–,> 100,–,> 100,–,> 100,–,> 100,–,> 100,–,> 100
COc1cc(/C=C2\NC(=S)C3Cc4c(OC)c(C)c(OC)c(OC)c4C2N3C)c(OC)c(C)c1OC (stereo unspecified),–,> 100,–,> 100,–,–,–,> 100,–,> 100,–,> 100,–,30,–,> 100,–,> 100
Cc1nnc2n1N=C(c1ccc(-c3ccc([N+](=O)[O-])cc3)o1)CS2,–,> 100,–,> 100,–,> 100,–,> 100,–,> 100,–,> 100,–,> 100,–,> 100,–,> 100
CN(C)CCC(/C=C/c1ccccc1)=N\Nc1ccc(Cl)cc1,–,6.26,–,5.15,–,15.2,–,7.53,–,5.02,–,3.57,–,4.29,–,14,–,4.4
COC(=O)[C@@H]1[C@H](O)[C@H](C)[C@H](O)[C@H](C)/C=C\C=C(C)C(=O)Nc2c(C)c(OC(C)=O)c3c(c2O)C(=O)C(C)=C2OCOC(=C23)C(C)=C[C@@](C)(O)[C@H](O)[C@@H](C)[C@H]1OC(C)=O,–,> 100,–,> 100,–,–,–,> 100,–,> 100,–,> 100,–,–,–,> 100,–,–
Cc1cc(Cl)cc2c1NC(=O)C2(O)CC(=O)c1ccc(F)cc1 (stereo unspecified),–,> 100,–,> 100,–,> 100,–,> 100,–,–,–,> 100,–,> 100,–,> 100,–,> 100
C=C[Si](C)(C)COC(=O)/C(C#N)=C/C=C/c1ccccc1,–,> 100,–,> 100,–,> 100,–,> 100,–,> 100,–,–,–,> 100,–,> 100,–,> 100

# Reference: PubChem BioAssay (NCI)
